Here are results for two compounds from ChEMBL document CHEMBL5329195, “Identification of novel glucocerebrosidase chaperones by unexpected skeletal rearrangement reaction” (Bioorg Med Chem Lett, 2023).

Molecules are shown by their SMILES. Some results are limits rather than exact numbers.

For data set [1], the target named is T1, Lysosomal acid glucosylceramidase (Homo sapiens, UniProt P04062, N409S). The experiment in a line: Chaperone activity at GCase N370S GBA mutant in patient derived fibroblast cells using 4-methylumbelliferyl-beta-D-glucopyranoside as substrate incubated for 5 days by fluorescence based analysis. Format: cell-based. The following applies: read-out: EC50.
The nature of data set [2]: Stability of the compound in human liver microsomes assessed as intrinsic clearance. The data set is classed as ADME, Microsome. The following applies: read-out: CLH. In general terms: Liver microsomes are a subcellular fraction often used to study metabolism.
A short description of data set [3]: Stability of the compound in mouse liver microsomes assessed as intrinsic clearance. Format: ADME, Microsome. The note with it: read-out: CLH.
Data set [4] is described as follows: Solubility of the compound at pH 7.4. The note with it: buffer. Format: physicochemical.
Data set [5] is described as follows: Solubility of the compound at pH 1.2. Format: physicochemical. The following applies: buffer.
Data set [6] concerns the target T1, Lysosomal acid glucosylceramidase. Kind of data set: Inhibition of GCase N370S GBA mutant in patient derived fibroblast cells using 4-methylumbelliferyl-beta-D-glucopyranoside as substrate incubated for 5 days by fluorescence based analysis. The data set is classed as cell-based. The note with it: read-out: IC50.
The target of data set [7] is Voltage-gated inwardly rectifying potassium channel KCNH2 (Homo sapiens, UniProt Q12809). Kind of data set: Inhibition of human ERG. Format: toxicity.
Voltage-gated inwardly rectifying potassium channel KCNH2, sequence (Q12809 whole entry): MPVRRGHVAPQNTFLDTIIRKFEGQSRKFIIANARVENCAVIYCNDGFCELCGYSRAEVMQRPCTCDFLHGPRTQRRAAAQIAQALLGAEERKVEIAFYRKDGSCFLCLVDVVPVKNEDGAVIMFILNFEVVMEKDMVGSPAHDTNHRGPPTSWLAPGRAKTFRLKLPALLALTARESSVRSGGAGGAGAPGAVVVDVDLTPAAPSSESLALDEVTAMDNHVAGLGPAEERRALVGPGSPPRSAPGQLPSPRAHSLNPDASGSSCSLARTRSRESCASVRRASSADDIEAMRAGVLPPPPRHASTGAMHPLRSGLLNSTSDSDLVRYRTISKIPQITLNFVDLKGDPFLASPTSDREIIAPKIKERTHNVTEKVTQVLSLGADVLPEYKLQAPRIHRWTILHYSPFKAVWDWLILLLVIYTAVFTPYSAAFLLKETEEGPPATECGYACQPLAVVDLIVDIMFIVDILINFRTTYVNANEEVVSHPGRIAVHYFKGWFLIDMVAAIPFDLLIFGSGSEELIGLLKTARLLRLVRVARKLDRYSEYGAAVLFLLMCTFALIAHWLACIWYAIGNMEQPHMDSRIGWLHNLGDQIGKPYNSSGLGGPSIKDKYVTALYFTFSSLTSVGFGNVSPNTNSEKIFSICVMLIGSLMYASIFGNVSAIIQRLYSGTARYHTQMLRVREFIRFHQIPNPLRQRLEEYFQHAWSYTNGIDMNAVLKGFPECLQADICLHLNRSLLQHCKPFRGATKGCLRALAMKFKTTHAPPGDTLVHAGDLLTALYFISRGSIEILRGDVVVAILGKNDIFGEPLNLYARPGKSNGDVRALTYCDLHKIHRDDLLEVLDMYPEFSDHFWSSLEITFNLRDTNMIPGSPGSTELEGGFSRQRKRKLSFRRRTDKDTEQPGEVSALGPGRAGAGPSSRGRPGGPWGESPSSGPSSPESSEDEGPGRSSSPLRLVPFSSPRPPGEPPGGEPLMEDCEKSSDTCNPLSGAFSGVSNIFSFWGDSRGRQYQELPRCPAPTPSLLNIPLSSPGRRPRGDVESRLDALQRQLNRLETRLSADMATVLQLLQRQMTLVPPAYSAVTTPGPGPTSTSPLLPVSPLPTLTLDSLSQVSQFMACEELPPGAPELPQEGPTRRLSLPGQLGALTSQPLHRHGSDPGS
Data set [8] can be described thus: Stability of the compound in JPI fluid at pH 1.2. The note with it: buffer. Format: physicochemical.
Data set [9] in a line: Stability of the compound in DMSO. Format: physicochemical.

As for `Cc1n[nH]c2c1[C@@H](O)[C@H](n1nnc3ccccc31)[C@@H](c1ccccc1Cl)N2`, in data set [1], the EC50 (in general, the midpoint of the concentration-response curve) was determined as 76 nM. The microsomal CLint in data set [2] came to 9.61 µL/min/mg; in [3] it was 15.7 µL/min/mg. For the same compound, the solubility in data set [4] and in [5] was greater than 100 µM each time. Besides, the values for the concentration for half-maximal inhibition (IC50) in data set [6] and in data set [7] were 110 nM and greater than 25000 nM, respectively.
Consider `Cc1cc2n(n1)C(O)[C@H](n1nnc3ccccc31)[C@@H](c1ccccc1)N2` (stereo not given in full), for which the EC50 in data set [1] was 5600 nM. Further, the Stability entry in [8] and in data set [9] was “Stable” in each case.
